Assay results as given in publication PMC8759731, “Design, synthesis, and evaluation of novel coumarin-dithiocarbamate derivatives (IDs) as anti-colorectal cancer agents” (Journal of Enzyme Inhibition and Medicinal Chemistry, 2021).

Legend:
SW620 cells [1] = assay: Annexin V-FITC/PI apoptosis analysis, SW620 cells; format: cell-based, human; details: SW620, 16 μM, 24 h
Experimental: (§1) Cell apoptosis was determined using Annexin V-FITC/PI Apoptosis Detection Kit (BD Biosciences, New Jersey, USA) in according with manufacturer's instruction. Briefly, cells were cultured in 6-well plates (40 000 cells per well) till reaching logarithmic growth phase and then treatment with DMSO or compound ID-11 (8 or 16 μM) for 24 h. Afterwards, the cells were harvested, washed with PBS for twice and stained with 100 μL of the mixture of Annexin V/FITC and PI in binding buffer (v/v, 5: 5: 100) in the darkness for 30 min. Another 200 μL binding buffer was added before detection. The apoptotic cells were then analysed by FACS Calibur flow cytometry immediately.

SW480 cells [2] = assay: Annexin V-FITC/PI apoptosis analysis, SW480 cells; format: cell-based, human; details: SW480, 16 μM, 24 h
Experimental: as §1

SW620 cells [3] = assay: Western blot assay, SW620 cells; format: cell-based, human; details: 24 h
Experimental: Cells were cultured in 6-well plates at a density of 40,000 cells per well overnight, and then exposed to selected compounds at different concentrations for 24 h. Subsequently, the cells were lysed in lysate buffer containing 50 mM Tris-HCl (PH 6.8), 2% SDS, 0.1% bromophenol blue, 1.5% DTT, 10% glycerol. The total protein extracts were boiled, sonicated, separated by 10–12% SDS-PAGE gels and transferred to polyvinylidene fluoride (PVDF) membranes. Then the membranes were blocked with 5% non-fat milk at room temperature for 1 h and incubated with primary antibodies at 4 °C overnight. After that, membranes were washed with 1× TBST for three times and incubated with secondary antibody at room temperature for 2 h. Finally, after washing with 1× TBST for three times, the bolts were visualised by an enhanced chemiluminescence kit (Beyotime, China) using the Amersham Imager 600 system (GE Healthcare Life Science, Shanghai, China).

BRD4 (BD2) = biological target: T1, BRD4 (BD2) (Homo sapiens, UniProt O60885); assay: HTRF assay BRD4 (BD2); format: binding; details: read-out: Inhibitory rate at 10 μM, BRD4 (BD2)
T1 construct: purchased Reaction Biology Corp. RD-11-158
Experimental: (§2) In brief, compounds were serially diluted in Echo plate according to the plate map and DMSO’s final fraction is 0.1%. Then, transferring compounds and DMSO to 384-well assay plate by Echo. After that, 2× Protein and Peptide Mix was added to the assay plate and 2× Detection Mix was then added to assay plate and shook for 30 s. After incubating the plate at room temperature for 1.5 h, the HTRF signals (Excitation wavelength at 340 nm, Emission wavelength at 615 & 665 nm) was read on EnVision (PerkinElmer, UK). (+)-JQ1 (BPS Bioscience, Cat. No. 27402) was used as a positive control. BRD4-1 (RD-11–157) and BRD4-2 (RD-11–158) were purchased from Reaction Biology Corp. (PENN, USA). For Curve fitting, the inhibition values was calculated in Excel using Equation (1): Inhibition %=(Max-Signal)/(Max-Min)*100, and the IC50 values was calculated in XL-Fit using Equation (2): Y = Bottom + (Top-Bottom)/(1+(IC50/X)[…]), Y is %inhibition and X is compound concentration.

BRD4 (BD1) = biological target: T2, BRD4 (BD1) (Homo sapiens, UniProt O60885); assay: HTRF assay BRD4 (BD1); format: binding
T2 construct: purchased Reaction Biology Corp. RD-11-157
Experimental: as §2

SW620 cells [4] = assay: MTS cell viability assay, SW620 cells; format: cell-based; details: Homo sapiens
From the text: Human colorectal cancer cell lines including RKO, SW620 and SW480 were purchased from Chinese Academy of Sciences, a typical cell library culture preservation committee (Shanghai, China). Normal human colon epithelial cell line NCM460 was purchased from ATCC (Washington, DC, USA). RPMI-1640 medium (12633020), foetal bovine serum (FBS, 26170043), penicillin-streptomycin (10378016) and phosphate buffered saline (PBS, 70011044) were purchased from Gibco (Eggenstein, Germany). 5-Fluorouracil (5-FU, E0201010050, purity ≥98%) was purchased from Energy Chemical (Shanghai, China). Dimethyl sulfoxide (DMSO, 41639) was obtained from Sigma-Aldrich (St. Louis, MO). 3–(4,5-dimethylthiazol-2-yl)-5–(3-carboxymethoxyphenyl)-2–(4-sulfophenyl)-2H-tetrazolium (MTS, G1111) was purchased from Promega (Madison, WI, USA). All cell lines were cultured in RPMI-1640 medium supplemented with 10% FBS, penicillin (100 units/mL) and streptomycin ([…]) at 37 °C in a humidified atmosphere containing 5% CO2.
Cell viability was measured via MTS assay. RKO, SW620, SW480 and NCM460 cells were seeded in 96-well plates at a density of 5000 cells per well for 24 h. After treatment with the test compounds at indicated concentration for another 48 h or 72 h at 37 °C, MTS solution was added to each well and incubated for another 30 min at 37 °C. Then, the absorbance at 490 nm was measured by a BioTek Synergy H4 microplate Reader (Vermont, USA). The IC50 values were calculated with Graphpad 7.0 software packages.

SW480 cells [5] = assay: Cell cycle analysis (PI, flow cytometry), SW480 cells; format: cell-based, human; details: SW480, 16 μM, 24 h
Experimental: Cells were seeded in 6-well plates (40,000 cells per well) and cultured in RPMI-1640 medium containing 10% FBS overnight. Then the cells were exposed to DMSO or compound ID-11 (8 or 16 μM) for 24 h. After that, cells were collected, washed with cold PBS for twice and fixed in 75% ethanol overnight at 4 °C. Subsequently, ethanol was removed and suspended in PBS for twice, and then RNase A and propidium iodide (PI) (Multi Sciences, Hangzhou, China) was added and keep in the darkness for 30 min. Finally, the percentages of cells in different cell cycle phases were measured using a FACS Calibur flow cytometer (Bectone Dickinson, San Jose, CA, USA).

SW480 cells [6] = assay: Quantitative RT-PCR, SW480 cells; format: cell-based, human; details: SW480, 0 to 24 μM, 24 h, qRT-PCR
Experimental: Cells (50,000 cells per well) incubated in 6-well plates were treated with compound ID-11 for 24 h. After that, the total RNA was extracted using Total RNA Extraction Reagent (Invitrogen, USA) according to the manufacturer’s instructions and quantified with NanoDrop 2000 (Nanodrop, USA). Then the cDNA was synthesized from total RNA using High-Capacity cDNA Reverse Transcription Kit (Applied Biosystems, USA). The SYBR Green Master reagents (Applied Biosystems, USA) was used to determine the relative expression of mRNA level by quantitative real-time PCR (qRT-PCR). The primer sequences are shown below.

- inhibition at 10 µM (BRD4 (BD2)): 35.7%
- inhibition at 10 µM (BRD4 (BD1); 10 μM, read-out: Inhibitory rate at 10 μM, BRD4 (BD1)): 68.9%
- IC50 (BRD4 (BD1); mean ± SD of three independent experiments): 7.8 ± 2.2 µM
- IC50 (SW620 cells [4]; SW-620, 72 h): 8.81 µM
- melting point: 139.1 to 140 °C
SMILES: O=c1ccc2cc(CSC(=S)n3ccnc3)ccc2o1 [ID-11, (2-Oxo-2H-chromen-6-yl)methyl 1H-imidazole-1-carbodithioate]
- total apoptosis rate (SW620 cells [1]): 73.31%
- total apoptosis rate (SW480 cells [2]): 23.23%
- expression level of cdc2 (SW620 cells [3]; SW620, 0 to 16 μM): decreased in a concentration-dependent way
- expression level of cleaved PARP (SW620 cells [3]; SW620, 0 to 16 μM): increased in a dose-dependent way
- expression level of cyclin B1 (SW620 cells [3]; SW620, 0 to 16 μM): decreased in a concentration-dependent way
- protein expression level of Bcl-2 (SW620 cells [3]; SW620, 0 to 24 μM): decreased
- protein expression level of c-Myc (SW620 cells [3]; SW620, 0 to 24 μM): decreased
- viability at 10 µM (SW620 cells [4]; SW-620, 10 μM, 72 h): 43.9%
- cell cycle distribution G2 (G2/M phase) (SW480 cells [5]): 21.03%
- mRNA relative expression level of Bcl-2 (SW480 cells [6]): also decreased in a concentration dependent way
- mRNA relative expression level of c-Myc (SW480 cells [6]): also decreased in a concentration dependent way
